Assay results published in patent US20260028390A1, “ALPHA1-ANTITRYPSIN FOR USE IN THE TREATMENT OF DISEASES OR DISORDERS OF THE NERVOUS SYSTEM SUCH AS CHRONIC INFLAMMATORY DEMYELINATING POLYNEUROPATHY” (Ageronix SA, priority 2022, published 2026).
Values joined by “and” are separate entries in the source; they are usually repeats but may differ in a detail not shown here. Identical values can stand only once.

How the values were obtained:
[1] = system: CMT1A mice B6.Cg-Tg(PMP22)C3Fbas/J; test: Sciatic nerve electrophysiology (CMAP, NCV), CMT mice treated with AAT 180 mg/kg/day sc; assay type: in vivo, mouse
Protocol: CMT MOUSE MODEL: Non-humanized CMT1A mice B6.Cg-Tg(PMP22)C3Fbas/J (three copies of the PMP22 gene), three groups of 8 animals each.
DOSAGE: 180 mg/kg/day non-clinical grade AAT (Sigma)
ADMINISTRATION: Subcutaneous (SC) (bi-daily injection of 90 mg/kg)
(§1) Animals were received at 6 weeks of age and housed under controlled conditions for the duration of the study. The study comprised two groups of 8 transgenic mice (CMT mice) each and one group of 8 age matched wild type (WT) C57B16 mice, serving as positive control. Animals were assigned to the following subcutaneous treatments twice daily at 7:00 AM and 7:00 PM for 2 weeks, starting from 8 weeks and up to 10 weeks of age: • Wild-type (WT, no disease) mice receiving vehicle, 0.9% NaCl (positive control) • CMT1A mice receiving vehicle, 0.9% NaCl (negative control) • CMT1A mice receiving AAT at 90 mg/kg per injection (daily dose 180 mg/kg)
(§2) The efficacy parameters included: • neuromuscular performance (rotarod latency to fall and grip strength test), • sciatic nerve electrophysiology (CMAP amplitude and NCV) • cytokine (IL-6 and TNFα), as well as NfL analysis • sciatic nerve histology (number of axons and axonal diameter),
On the first day of treatment (Day 1), the neuromuscular and performance of animals was tested with a rotarod test and a grip strength test, as well as sciatic nerve electrophysiology test, which measured the compound muscle action potential (CMAP) and the nerve conduction velocity (NCV). After the last treatment on Day 15, these tests were repeated. Animals were then left untreated for 2 additional weeks to evaluate the duration of the treatment effect. Following the 2-week treatment-free period until 12 weeks of age (Day 30), the behavioural and electrophysiological tests were repeated.

[2] = system: plasma TNFα; test: Plasma TNFα, CMT mice treated with AAT 180 mg/kg/day sc; assay type: in vivo, mouse
Description: as §1, §2
As supportive information for the mode of action of AAT in CMT, plasma concentration of interleukin 6 (IL-6) and TNFα were measured at Day 1 (8 weeks), Day 15 (10 weeks) and Day 30 (12 weeks). At the same timepoints, plasma levels of the biomarker of nerve damage, NfL were determined.

[3] = system: C3-PMP22 transgenic mice (CMT1A); test: Rotarod test, CMT1A mouse study (50 mg/kg twice daily); assay type: in vivo; conditions: for Rotarod latency, Mean/animal / Rotarod latency, set 1, individual animals / Rotarod latency, set 2, individual animals / Rotarod latency, set 3, individual animals: CMT1A + AAT; for Rotarod latency (Mean ± SEM): CMT1A mice
Description: As a murine model of CMT1A we used C3-PMP22 transgenic mice (B6.Cg-Tg(PMP22)C3Fbas/J, The Jackson Laboratory) which express three copies of a wild-type human peripheral myelin protein 22 (PMP22) gene (Verhamme, Camiel, et al. Journal of Neuropathology & Experimental Neurology 70.5 (2011): 386-398). Mice were housed in macrolon cages with filter hoods, in a continuously air-filtered room, thereby avoiding contamination. During experiments, paired animals were caged at a constant temperature with a day/night cycle of 12/12 hours. Animals were fed (control tap water and nutrition) ad libitum. Animal protocol is approved by the Animal Studies Committee of Languedoc Roussillon. This protocol and the laboratory procedures comply with French legislation, which implements the European Directives (Reference Number: D3417223, APAFIS #23920-2020020320279696 v3). Animal health was followed on a daily basis to ensure that only animals in good health enter the testing procedures and follow up the study.
Animals were split in 3 groups (wild-type control (subcutaneous 0.9% NaCl), CMT1A-vehicle (subcutaneous 0.9% NaCl), CMT1A-human alpha-1 antitrypsin (subcutaneous, twice daily, 50 mg/kg per injection)) of 3 mice each (3 weeks old males of 18±2.5 g at the beginning of study) and all went through the following protocol after 7 days of acclimation on site.
On the first and last day of treatment, the neuromuscular performance of animals was tested with a rotarod test, grip test and sciatic nerve electrophysiology test. After the last treatment at 8 weeks, these tests were repeated, and animals were sacrificed and the left sciatic nerve was sampled for histological evaluation of the number and size of […].
The rotarod test measures neuromuscular coordination by assessing the capacity of the animals to stay in balance on a rotating cylinder. Similar rotarod latency was observed between groups at the baseline (6 weeks old).

[4] = system: plasma NfL; test: Plasma NfL quantification, CIDP mouse model; assay type: in vivo; conditions: for Plasma NfL, Mean Diff., CIDP + vehicle vs. CIDP + hAAT / Plasma NfL, Mean Diff., Sham negative control vs. CIDP + hAAT: Bonferroni's multiple comparisons test; for Plasma NfL concentration (Mean ± SD): CIDP mice; for NfL conc: per animal, listed as hAAT
Protocol: C57BL/6 mice were received at 8 weeks of age and housed under controlled conditions for the duration of the study. Three groups of 4 animals each were assigned to the following subcutaneous treatments twice daily at 7:00 AM and 7:00 PM for 2 weeks, from 20 to 35 days after the start of disease induction: • Wild type (WT) mice receiving the vehicle, 0.9% NaCl (positive control) • CIDP mice receiving the vehicle, 0.9% NaCl (negative control) • CIDP mice receiving human AAT (AAT), 50 mg/kg per injection
On the day preceding disease induction (Day 1), on the first (Day 20) and on the last (Day 35) treatment day, animals were subjected to blood samplings for the determination of neurofilament light chain (NfL), tumour necrosing factor alpha (TNFα) and TMPRSS5 levels, as described in FIG. 20. In addition, plasma levels of AAT were evaluated on the last treatment day.

[5] = 8 weeks old (baseline, Day 1), CMT1A + AAT
[6] = 8 weeks old, CMT + hAAT 180 mg/kg/day SC, 8 mice
[7] = 8 weeks old, CMT + hAAT 180 mg/kg/day SC, individual mouse
[8] = 10 weeks old (Day 15, after 2 weeks AAT 90 mg/kg sc twice daily)
[9] = 12 weeks of age, after 2-week treatment-free period
[10] = 12 weeks old (Day 30, after 2-week treatment-free period)
[11] = CMT mice, AAT 90 mg/kg sc twice a day, 8 to 10 weeks of age, end of treatment

alpha1-antitrypsin (AAT) protein
Conduction velocity, group MEAN ([1]; 6 weeks old, CMT + hAAT, 8 mice): 26.266 m/s | Compound muscle action potential (Mean ± SD) [1, 5]: 3.76 ± 0.50 mV | Nerve conduction velocity (Mean ± SD) [1, 5]: 15.96 ± 1.54 m/s | Amplitude, group MEAN [1, 6]: 5.492 mV | Conduction velocity, group MEAN [1, 6]: 16.946 m/s | Amplitude [1, 7]: 4.874 mV and 5.376 mV and 5.322 mV and 9.084 mV and 6.115 mV and 3.753 mV and 5.277 mV and 4.139 mV | Conduction velocity [1, 7]: 18.707 m/s and 16.462 m/s and 10.029 m/s and 19.200 m/s and 17.615 m/s and 9.648 m/s and 25.446 m/s and 18.460 m/s | T1 distal [1, 7]: 3.916 ms and 3.259 ms and 3.449 ms and 4.291 ms and 3.773 ms and 8.247 ms and 7.467 ms and 11.449 ms | T2 proximal [1, 7]: 4.718 ms and 4.170 ms and 4.945 ms and 5.072 ms and 4.624 ms and 9.802 ms and 8.057 ms and 12.262 ms | Compound muscle action potential (Mean ± SD) [1, 8]: 5.41 ± 0.71 mV | Nerve conduction velocity (Mean ± SD) [1, 8]: 21.47 ± 6.07 m/s | NCV vs untreated group [1, 9]: non-significantly different | CMAP vs untreated CMT animals ([1]; 12 weeks of age, after 2-week treatment-free period, P<0.05): significantly higher | Compound muscle action potential (Mean ± SD) [1, 10]: 2.94 ± 0.65 mV | Nerve conduction velocity (Mean ± SD) [1, 10]: 10.50 ± 1.73 m/s | compound muscle action potential amplitude vs CMT mice not treated with AAT [1, 11]: significant increase | nerve conduction velocity vs CMT mice not treated with AAT [1, 11]: significant increase | Plasma TNFα (Mean ± SD) [2, 5]: 9.80 ± 2.25 pg/mL | Plasma TNF-α concentration, group Mean ([2]; 8 weeks old, CMT + hAAT 180 mg/kg/day SC, 8 animals): 6.94 pg/mL | Plasma TNF-α concentration ([2]; 8 weeks old, CMT + hAAT 180 mg/kg/day SC, individual animal): 7.04 pg/mL and 7.89 pg/mL and 7.91 pg/mL and 5.44 pg/mL and 7.90 pg/mL and 5.34 pg/mL and 8.02 pg/mL and 5.95 pg/mL | Plasma TNFα (Mean ± SD) [2, 8]: 6.55 ± 2.11 pg/mL | positive effect on TNFα plasma levels [2, 9]: remained significant | Plasma TNFα (Mean ± SD) [2, 10]: 11.61 ± 1.00 pg/mL | plasma levels of TNFα ([2]; CMT mice, AAT 90 mg/kg sc twice a day, P<0.0001): reduced | Rotarod latency, Mean/animal ([3]; 6 weeks old (baseline)): 84.36 s and 71.19 s and 72.91 s | Rotarod latency, set 1, individual animals ([3]; 6 weeks old (baseline)): 85.0 s and 51.4 s and 59.6 s | Rotarod latency, set 2, individual animals ([3]; 6 weeks old (baseline)): 102.6 s and 93.4 s and 92.1 s | Rotarod latency, set 3, individual animals ([3]; 6 weeks old (baseline)): 65.5 s and 68.8 s and 67.1 s | Rotarod latency, Mean/animal ([3]; 8 weeks old): 49.76 s and 64.65 s and 56.12 s | Rotarod latency, set 1, individual animals ([3]; 8 weeks old): 62.1 s and 83.2 s and 46.0 s | Rotarod latency, set 2, individual animals ([3]; 8 weeks old): 35.7 s and 39.5 s and 46.0 s | Rotarod latency, set 3, individual animals ([3]; 8 weeks old): 51.5 s and 71.3 s and 76.4 s | rotarod latency compared to the control group ([3]; CMT1A mice treated with AAT, 8 weeks old): improvement | Rotarod latency (Mean ± SEM) ([3]; 6 weeks old (baseline)): 76.15 ± 4.13 s | Rotarod latency (Mean ± SEM) ([3]; 8 weeks old, AAT 50 mg/kg sc twice daily): 56.84 ± 4.31 s | Plasma NfL, Mean Diff., CIDP + vehicle vs. CIDP + hAAT ([4]; Day 1): 0.04828 | Plasma NfL, Mean Diff., Sham negative control vs. CIDP + hAAT ([4]; Day 1): 0.01878 | Plasma NfL, Mean Diff., CIDP + vehicle vs. CIDP + hAAT ([4]; Day 20): 0.2088 | Plasma NfL, Mean Diff., Sham negative control vs. CIDP + hAAT ([4]; Day 20): -2.85 ng/mL | Plasma NfL, Mean Diff., CIDP + vehicle vs. CIDP + hAAT ([4]; Day 35): 1.01 ng/mL | Plasma NfL, Mean Diff., Sham negative control vs. CIDP + hAAT ([4]; Day 35): -1.88 ng/mL | plasma NfL concentration compared to the CIDP+vehicle treated group ([4]; CIDP + AAT, day 35): significant decrease | Plasma NfL concentration (Mean ± SD) ([4]; Day 1): 0.29 ± 0.11 ng/mL | Plasma NfL concentration (Mean ± SD) ([4]; Day 20): 3.12 ± 0.86 ng/mL | Plasma NfL concentration (Mean ± SD) ([4]; Day 35): 2.30 ± 0.27 ng/mL | NfL conc, group MEAN ([4]; Day 1): 0.29 ng/mL | NfL conc, group MEAN ([4]; Day 20): 3.12 ng/mL | NfL conc, group MEAN ([4]; Day 35): 2.30 ng/mL | NfL conc ([4]; Day 1 (before model induction)): 0.3654 ng/mL and 0.2865 ng/mL and 0.3798 ng/mL and 0.1412 ng/mL | NfL conc ([4]; Day 20 (before compound treatment)): 3.7596 ng/mL and 2.7654 ng/mL and 3.8846 ng/mL and 2.0831 ng/mL | NfL conc ([4]; Day 35): 2.4447 ng/mL and 1.9017 ng/mL and 2.3497 ng/mL and 2.5056 ng/mL
